{"source": "patent US20200390755A1", "about": "“COMPOUND FOR TREATING NERVOUS SYSTEM DISEASES AND USE THEREOF” (SHAANXI MICOT TECHNOLOGY CO., LTD., priority 2018, published 2020)", "key": {"[1]": {"system": "WT mice", "assay": "Slope balance beam experiment, WT mice", "format": "in vivo, mouse", "details": "5 mg/kg/d intragastric", "protocol": "7-week-old N171-82Q HD male mice were paired with female B6C3F1/J hybrid mice to obtain newborn mice. From 21 days of age, male mice were housed in separate cages. 0.5 cm of mouse tail tissue was removed to extract DNA to determine the genotype of the mouse, such that N171-82Q HD mice and WT mice needed for the experiment were obtained. The mice were randomly divided into WT Vehicle group (normal mice), WT test compound group (administration group of normal mice, 5 mg/kg/d, n=10), HD Vehicle group (blank group of HD mice, n=15), HD test compound group (administration groups 1-5 of HD mice, 5 mg/kg/d, n=10). The test compound was suspended in 1% CMC-Na solution and administered by intragastric administration until the end of the study. The weights of the mice were measured every week. Behavioral tests were performed at 12 weeks, 18 weeks, and 24 weeks of age to investigate motor function. At 20 weeks, 3 samples of tissue from each group were used for western blotting and immunohistochemistry. At 24 weeks, MRI scans were performed. At the end of the study, the effect of the test compound on the mortality of mice was evaluated. The software Sigmaplot 13.0 was used for statistical analysis of the data, and the data of each group was expressed as mean standard error (x±SEM). Behavioral test results were analyzed using two-way (genotype and processing factor) ANOVA and post-ho tests, the comparison and statistics of weight data were performed using two-way (genotype and age) ANOVA of repeated measures, and mortality was counted using Kaplan-Meier method. Other measurement data were analyzed by one-way ANOVA. P<0.05 was considered statistically significant. The motor function of mice was evaluated by the rotarod experiment and three types of balance beam experiments. The shorter the time for mouse to cross the balance beam, and the longer the time to drop, the stronger the coordination ability of the mouse. […] If the time for crossing the beams was greater than 60 seconds, it was recorded as 60 seconds."}, "[2]": {"system": "WT mice", "assay": "DARPP32 protein level in striatum by Western blotting, WT mice", "format": "in vivo, mouse", "details": "5 mg/kg/d until 25 weeks, WT Vehicle = 100, n = 3", "protocol": "7-week-old N171-82Q HD male mice were paired with female B6C3F1/J hybrid mice to obtain newborn mice. From 21 days of age, male mice were housed in separate cages. 0.5 cm of mouse tail tissue was removed to extract DNA to determine the genotype of the mouse, such that N171-82Q HD mice and WT mice needed for the experiment were obtained. The mice were randomly divided into WT Vehicle group (normal mice), WT test compound group (administration group of normal mice, 5 mg/kg/d, n=10), HD Vehicle group (blank group of HD mice, n=15), HD test compound group (administration groups 1-5 of HD mice, 5 mg/kg/d, n=10). The test compound was suspended in 1% CMC-Na solution and administered by intragastric administration until the end of the study. The weights of the mice were measured every week. Behavioral tests were performed at 12 weeks, 18 weeks, and 24 weeks of age to investigate motor function. At 20 weeks, 3 samples of tissue from each group were used for western blotting and immunohistochemistry. At 24 weeks, MRI scans were performed. At the end of the study, the effect of the test compound on the mortality of mice was evaluated. […] The total protein in the striatum tissue was extracted, and the protein level of DARPP 32 was detected by Western blotting experiment. […] The protein was extracted, and the protein level of DARPP 32 was detected by Western blotting."}}}
{"smiles": "O=c1cc(-c2ccc(N3CCCCC3)cc2)oc2c(O)c(O)ccc12", "note": "[Example 1, 7,8-dihydroxy-2-(4-(piperidin-1-yl)phenyl)-4H-chromen-4-one]", "values": [{"measurement": "Time for crossing the beams, slope balance beam", "setting": "[1]; 12 w", "result": "18.82 ± 28.33", "unit": "s"}, {"measurement": "Time for crossing the beams, slope balance beam", "setting": "[1]; 18 w", "result": "12.45 ± 6.23", "unit": "s"}, {"measurement": "Time for crossing the beams, slope balance beam", "setting": "[1]; 24 w", "result": "15.50 ± 6.11", "unit": "s"}, {"measurement": "Relative intensity of DARPP32 protein", "setting": "[2]", "result": "96.066 ± 5.805"}]}
